Data published in patent publication US9765075B2, “Substituted bridged urea analogs as sirtuin modulators” (GLAXOSMITHKLINE LLC, priority 2013, dated 2017).
Like-named read-outs stand apart in the source and are kept apart here.

Target: T1, SIRT1 (Homo sapiens, UniProt Q96EB6)
T1 sequence (Q96EB6 1-747): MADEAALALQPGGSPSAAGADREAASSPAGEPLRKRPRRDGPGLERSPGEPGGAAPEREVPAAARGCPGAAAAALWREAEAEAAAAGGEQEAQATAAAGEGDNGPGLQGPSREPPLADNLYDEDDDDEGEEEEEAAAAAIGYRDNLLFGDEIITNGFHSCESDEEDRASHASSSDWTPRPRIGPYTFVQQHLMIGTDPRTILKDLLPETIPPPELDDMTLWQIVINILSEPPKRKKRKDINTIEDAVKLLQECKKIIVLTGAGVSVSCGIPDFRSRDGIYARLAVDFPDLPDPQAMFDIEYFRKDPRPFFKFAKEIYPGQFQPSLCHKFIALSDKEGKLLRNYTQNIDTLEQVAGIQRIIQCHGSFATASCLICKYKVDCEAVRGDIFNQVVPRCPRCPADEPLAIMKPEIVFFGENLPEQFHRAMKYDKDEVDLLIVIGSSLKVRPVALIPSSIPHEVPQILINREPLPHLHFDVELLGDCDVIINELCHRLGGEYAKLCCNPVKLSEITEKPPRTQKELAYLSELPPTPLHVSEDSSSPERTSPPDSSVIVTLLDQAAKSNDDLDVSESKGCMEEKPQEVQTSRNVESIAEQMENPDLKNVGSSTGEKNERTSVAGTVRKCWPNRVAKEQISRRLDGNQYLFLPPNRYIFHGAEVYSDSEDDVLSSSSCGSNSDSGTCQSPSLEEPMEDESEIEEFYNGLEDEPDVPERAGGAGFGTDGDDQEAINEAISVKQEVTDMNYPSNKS
Test: Trp mass spectrometry assay (SIRT1 activation)
Type: biochemical
Settings: for Emax: percent maximum fold activation of SIRT1, read-out: Tryp % Fold Act
Method in brief: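 N-His-tagged SIRT1 (10 nM), expressed in E. coli, was incubated with 0.5 μM Ac-RHKK(Ac)W-NH2 peptide and 120 μM NAD+ for 25 min at 25 °C in HEPES pH 7.5 with […]. The reaction was stopped with formic acid and O-acetyl-ADP-ribose or deacetylated peptide was quantified by mass spectrometry. Results are given as EC1.5 and percent maximal activation relative to DMSO control.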

[1] = Trp mass spectrometry assay, EC1.5 = concentration giving 150% activation of SIRT1
[2] = concentration of test compound that results in 150% activation of SIRT1, Trp peptide substrate
[3] = Trp mass spectrometry assay, EC1.5 = concentration of test compound that results in 150% activation of SIRT1

SMILES	Tryp AVG EC1.5 (μM) [1]	Emax (Trp mass spectrometry assay) [%]	Tryp AVG EC1.5 (μM) [2]	Emax (Trp peptide substrate) [%]	Tryp AVG EC1.5 (μM) [3]
CCC(=O)N1CCC(c2cccc(NC(=O)N3c4nc(-c5cccc(C(F)(F)F)c5)ccc4N4CC[C@H]3C4)c2)C1 (stereo partly drawn) [Example 636]	A (EC1.5<1 μM)	≥ 150			
NCCCc1cc(NC(=O)N2c3nc(-c4cccc(C(F)(F)F)c4)ccc3N3CC[C@H]2C3)cc(-c2cnco2)c1 [Example 770]	A (EC1.5<1 μM)	≥ 150			
Cc1c(-c2ccc3c(n2)N(C(=O)Nc2cccnc2)[C@H]2CCN3C2)cnn1C [Example 489]			B (EC1.5 1-25 μM)	≥ 150	
COc1cc(-c2cccc(C(F)(F)F)c2)nc2c1N1CC[C@@H](C1)N2C(=O)Nc1ccncc1 [Example 160]		≥ 150			A (EC1.5<1 μM)
O=C(Nc1ccccn1)N1c2nc(-c3ccc(F)c(Cl)c3)ccc2N2CC[C@H]1C2 [Example 329]			A (EC1.5<1 μM)	≥ 150	
Cc1cncc(NC(=O)N2c3nc(-c4cncc(C(F)(F)F)c4)ccc3N3C[C@@H](O)[C@H]2C3)c1 [Example 690]	B (EC1.5 1-25 μM)	≥ 150			
CN(C(=O)N1c2nc(-c3cccc(C(F)(F)F)c3)ccc2N2CC[C@H]1C2)c1ccccn1 [Example 200]		< 150			C (EC1.5>25 μM)
O=C(Nc1cncc(F)c1)N1c2nc(-c3cccc(N4CCOCC4)c3)ccc2N2CCC[C@H]1C2 [Example 559]			A (EC1.5<1 μM)	≥ 150	
O=C(Nc1cccnn1)N1c2nc(-c3cncc(C(F)(F)F)c3)ccc2N2CCC[C@H]1C2 [Example 412]			A (EC1.5<1 μM)	≥ 150	
COc1cc(NC(=O)N2c3nc(-c4cncc(C(F)(F)F)c4)ccc3N3C[C@@H](O)[C@H]2C3)nc(OC)n1 [Example 704]	B (EC1.5 1-25 μM)	≥ 150			
O=C(Nc1cccnc1)N1c2nc(-c3cncc(F)c3)ccc2N2CCC1CC2 [Example 572]			B (EC1.5 1-25 μM)	≥ 150	
Cn1ccc(NC(=O)N2c3nc(-c4cccc(C(F)(F)F)c4)ccc3N3CC[C@H]2C3)n1 [Example 25]		≥ 150			
O=C(NCCc1ccncc1)N1c2nc(-c3cccc(C(F)(F)F)c3)ccc2N2CC[C@H]1C2 [Example 613]			B (EC1.5 1-25 μM)	≥ 150	
O=C(Nc1cccc(-c2cnco2)c1)N1c2nc(N3CCCC(C(F)(F)F)C3)ccc2N2CCC[C@@H]1C2 (stereo partly drawn) [Example 299]			A (EC1.5<1 μM)	≥ 150	
O=C(Nc1ccncn1)N1c2nc(-c3cncc(C(F)(F)F)c3)ccc2N2CC[C@H]1C2 [Example 276]			A (EC1.5<1 μM)	≥ 150	
O=C(Nc1nnc(-c2ccccc2)s1)N1c2nc(-c3cccc(C(F)(F)F)c3)ccc2N2CC[C@H]1C2 [Example 648]	A (EC1.5<1 μM)	≥ 150			
O=C(Nc1cccnn1)N1c2nc(-c3cccc(N4CCOCC4)c3)ccc2N2CCC[C@H]1C2 [Example 539]			B (EC1.5 1-25 μM)	≥ 150	
O=C(Nc1cnccn1)N1c2nc(-c3cccc(OC(F)(F)F)c3)ccc2N2CC[C@H]1C2 [Example 164]		≥ 150			A (EC1.5<1 μM)
O=C(Nc1ccncc1)N1c2nc(-c3cccc(C(F)(F)F)c3)ccc2N2CCC[C@@H]1C2 [Example 195]		≥ 150			B (EC1.5 1-25 μM)
N#Cc1ccccc1-c1ccc2c(n1)N(C(=O)Nc1ccncn1)[C@H]1CCCN2C1 [Example 451]			B (EC1.5 1-25 μM)	≥ 150	
N#Cc1cccc(-c2ccc3c(n2)N(C(=O)Nc2ccncn2)[C@H]2CCN3C2)c1 [Example 181]		≥ 150			A (EC1.5<1 μM)

SMILES	Tryp AVG EC1.5 (μM) [1]	Emax (Trp mass spectrometry assay) [%]	Tryp AVG EC1.5 (μM) [2]	Emax (Trp peptide substrate) [%]	Tryp AVG EC1.5 (μM) [3]
O=C(Nc1ccncn1)N1c2nc(N3CCCN(CC(F)(F)F)CC3)ccc2N2CCC[C@H]1C2 [Example 491]			A (EC1.5<1 μM)	≥ 150	
N#Cc1cccc(-c2ccc3c(n2)N(C(=O)Nc2cccnn2)[C@@H]2CCCN3C2)c1 [Example 226]			B (EC1.5 1-25 μM)	≥ 150	
Cc1c(-c2ccc3c(n2)N(C(=O)Nc2cnccn2)[C@H]2CCN3C2)cnn1C [Example 532]			B (EC1.5 1-25 μM)	≥ 150	
N#Cc1cccc(-c2ccc3c(n2)N(C(=O)Nc2ccccn2)[C@H]2CCN3C2)c1 [Example 139]		≥ 150			A (EC1.5<1 μM)
Cc1nc(NC(=O)N2c3nc(-c4cccc(C(F)(F)F)c4)ccc3N3CCC[C@H]2C3)sc1C [Example 33]		≥ 150			
Cc1cccnc1NC(=O)N1c2nc(-c3cccc(Cl)c3)ccc2N2CC[C@H]1C2 [Example 106]		≥ 150			C (EC1.5>25 μM)
Cc1cncc(-c2ccc3c(n2)N(C(=O)Nc2cccnc2)[C@H]2CCCN3C2)c1 [Example 515]			A (EC1.5<1 μM)	≥ 150	
Cc1cc(OCC(O)CO)nc(NC(=O)N2c3nc(-c4cccc(F)c4)ccc3N3CC[C@H]2C3)n1 (stereo partly drawn) [Example 64]		≥ 150			
O=C(Nc1cnccn1)N1c2nc(-c3cccc(N4CCCC4)c3)ccc2N2CC[C@H]1C2 [Example 206]		≥ 150			B (EC1.5 1-25 μM)
CC(C)(C)OC(=O)NCCCc1ccc(NC(=O)N2c3nc(-c4cccc(C(F)(F)F)c4)ccc3N3CC[C@H]2C3)cc1-c1cnco1 [Example 750]	A (EC1.5<1 μM)	≥ 150			
O=C(Nc1ccccn1)N1c2nc(N3CCCC(C(F)(F)F)C3)ccc2N2CCC[C@@H]1C2 (stereo partly drawn) [Example 300]			C (EC1.5>25 μM)	< 150	
O=C(CCCC[C@@H]1SC[C@@H]2NC(=O)N[C@@H]21)NCCCCCC(=O)NCc1cn(-c2cccc(NC(=O)N3c4nc(-c5cccc(C(F)(F)F)c5)ccc4N4CC[C@H]3C4)c2)nn1 [Example 607]			A (EC1.5<1 μM)		
Cn1ccc(NC(=O)N2c3nc(-c4cccc(OC(F)(F)F)c4)ccc3N3CC[C@H]2C3)n1 [Example 177]		≥ 150			A (EC1.5<1 μM)
N#Cc1cccc(-c2ccc3c(n2)N(C(=O)Nc2ccncc2F)[C@H]2CCN3C2)c1 [Example 147]		≥ 150			B (EC1.5 1-25 μM)
Cc1cc(-c2ccc3c(n2)N(C(=O)Nc2cnn(C)c2)[C@H]2CCN3C2)ccn1 [Example 482]			B (EC1.5 1-25 μM)	≥ 150	
Cc1cccnc1NC(=O)N1c2nc(-c3cccc(C(F)(F)F)c3)ccc2N2CC[C@H]1C2 [Example 14]		< 150			
O=C(Nc1cccc(-c2cnco2)n1)N1c2nc(-c3cccc(C(F)(F)F)c3)ccc2N2CCC[C@H]1C2 [Example 590]			A (EC1.5<1 μM)	≥ 150	
COc1cc(NC(=O)N2c3nc(-c4cccc(Cl)c4)ccc3N3CC[C@H]2C3)ncn1 [Example 104]		≥ 150			B (EC1.5 1-25 μM)
Cc1cc(-c2ccc3c(n2)N(C(=O)Nc2cncc(-c4cnco4)c2)[C@H]2CCN3C2)ccn1 [Example 748]	A (EC1.5<1 μM)	≥ 150			
C#Cc1ccc(NC(=O)N2c3nc(-c4ccc(C5(C(F)(F)F)N=N5)cc4)ccc3N3CC[C@H]2C3)nc1 [Example 807]	C (EC1.5>25 μM)	< 150			
O=C(Nc1ccncn1)N1c2nc(-c3cccc(C(F)(F)F)c3)ccc2N2CC[C@H]1C2 [Example 12]		≥ 150			
